Measurements: ChEMBL document CHEMBL3232987, “Investigation of Ugi-4CC derived 1H-tetrazol-5-yl-(aryl) methyl piperazinyl-6-fluoro-4-oxo-1,4-dihydroquinoline-3-carboxylic acid: synthesis, biology and 3D-QSAR analysis” (Eur J Med Chem, 2014)
Converted amounts (≈) assume the structure as drawn.

Key:
Staphylococcus aureus [1] = experiment: Antibacterial activity against methicillin-resistant Staphylococcus aureus ATCC 700699 by NCCLS two-fold dilution method; format: functional
Staphylococcus aureus [2] = experiment: Antibacterial activity against Staphylococcus aureus ATCC 25923 after 24 hrs by spectrophotometric analysis; format: functional, organism-based
Staphylococcus aureus [3] = experiment: Antibacterial activity against Staphylococcus aureus ATCC 29213 after 24 hrs by spectrophotometric analysis; format: functional, organism-based
Staphylococcus aureus [4] = experiment: Antibacterial activity against Staphylococcus aureus ATCC 25923 by NCCLS two-fold dilution method; format: functional; details: for MIC: Staphylococcus aureus, ATCC 25923
Staphylococcus aureus [5] = experiment: Antibacterial activity against methicillin-resistant Staphylococcus aureus ATCC 700699 after 24 hrs by spectrophotometric analysis; format: functional, organism-based
Staphylococcus aureus [6] = experiment: Antibacterial activity against Staphylococcus aureus ATCC 29213 by NCCLS two-fold dilution method; format: functional
Staphylococcus aureus [7] = experiment: Antibacterial activity against gentamicin-resistant Staphylococcus aureus ATCC 33592 by NCCLS two-fold dilution method; format: functional
Staphylococcus aureus [8] = experiment: Antibacterial activity against gentamicin-resistant Staphylococcus aureus ATCC 33592 after 24 hrs by spectrophotometric analysis; format: functional, organism-based
Klebsiella pneumoniae = experiment: Antibacterial activity against Klebsiella pneumoniae after 24 hrs by spectrophotometric analysis; format: functional, organism-based
Escherichia coli = experiment: Antibacterial activity against Escherichia coli after 24 hrs by spectrophotometric analysis; format: functional, organism-based
[9] = Staphylococcus aureus, ATCC 25923, 24 h
[10] = Staphylococcus aureus, ATCC 25923, 24 h, read-out: IC50
[11] = Staphylococcus aureus, ATCC 29213, 24 h
[12] = Staphylococcus aureus, ATCC 29213, 24 h, read-out: IC50
[13] = Staphylococcus aureus, ATCC 700699, 24 h
[14] = Staphylococcus aureus, ATCC 700699, 24 h, read-out: IC50
[15] = Staphylococcus aureus, ATCC 33592, 24 h
[16] = Staphylococcus aureus, ATCC 33592, 24 h, read-out: IC50

Row | Compound | MIC (Staphylococcus aureus [1]) [µg/mL] | MIC (Staphylococcus aureus [2]; [9]) [µg/mL] | IC50 (Staphylococcus aureus [2]; [10]) [µg/mL] | MIC (Staphylococcus aureus [3]; [11]) [µg/mL] | IC50 (Staphylococcus aureus [3]; [12]) [µg/mL] | -logMIC (Staphylococcus aureus [4]) | MIC (Staphylococcus aureus [4]) [µg/mL] | MIC (Staphylococcus aureus [5]; [13]) [µg/mL] | IC50 (Staphylococcus aureus [5]; [14]) [µg/mL] | MIC (Staphylococcus aureus [6]) [µg/mL] | MIC (Staphylococcus aureus [7]) [µg/mL] | MIC (Staphylococcus aureus [8]; [15]) [µg/mL] | IC50 (Staphylococcus aureus [8]; [16]) [µg/mL] | IC50 (Staphylococcus aureus [2]) [µg/mL] | IC50 (Staphylococcus aureus [3]) [µg/mL] | IC50 (Staphylococcus aureus [5]) [µg/mL] | IC50 (Klebsiella pneumoniae) [µg/mL] | IC50 (Staphylococcus aureus [8]) [µg/mL] | IC50 (Escherichia coli) [µg/mL]
1 | COc1ccc(C(c2nnnn2C(C)(C)C)N2CCN(c3cc4c(cc3F)c(=O)c(C(=O)O)cn4Cc3ccc(C(F)(F)F)cc3)CC2)c(OC)c1OC (configuration not stated) | 50 (≈ 66.3 µM) | 50 (≈ 66.3 µM) | 50 (≈ 66.3 µM) | 50 (≈ 66.3 µM) | 50 (≈ 66.3 µM) | 4.178 | 50 (≈ 66.3 µM) | 50 (≈ 66.3 µM) | 50 (≈ 66.3 µM) | 50 (≈ 66.3 µM) | 50 (≈ 66.3 µM) | 50 (≈ 66.3 µM) | 50 (≈ 66.3 µM) |  |  |  |  |  | 
2 | COc1ccc(C(c2nnnn2C2CCCCC2)N2CCN(c3cc4c(cc3F)c(=O)c(C(=O)O)cn4Cc3ccc(C(F)(F)F)cc3)CC2)c(OC)c1OC (configuration not stated) | > 50 | 50 (≈ 64.1 µM) | > 50 | > 50 | > 50 | 4.193 | 50 (≈ 64.1 µM) | > 50 | > 50 | > 50 | > 50 | > 50 | 50 (≈ 64.1 µM) |  |  |  |  |  | 
3 | O=C(O)c1cn(Cc2ccc(C(F)(F)F)cc2)c2cc(N3CCN(C(c4ccncc4)c4nnnn4C4CCCCC4)CC3)c(F)cc2c1=O (configuration not stated) | 50 (≈ 72.4 µM) | 50 (≈ 72.4 µM) | > 50 | 50 (≈ 72.4 µM) | > 50 | 4.14 | 50 (≈ 72.4 µM) | 50 (≈ 72.4 µM) | > 50 | 50 (≈ 72.4 µM) | > 50 | > 50 | 50 (≈ 72.4 µM) |  |  |  |  |  | 
4 | COc1ccc(C(c2nnnn2C(C)(C)C)N2CCN(c3cc4c(cc3F)c(=O)c(C(=O)O)cn4Cc3ccc(C(F)(F)F)cc3)CC2)c2ccccc12 (configuration not stated) | > 50 | > 50 | 50 (≈ 67.2 µM) | > 50 | > 50 | 4.172 | 50 (≈ 67.2 µM) | 50 (≈ 67.2 µM) | 50 (≈ 67.2 µM) | > 50 | > 50 | > 50 | > 50 |  |  |  |  |  | 
5 | CC(C)(C)n1nnnc1C(c1ccncc1)N1CCN(c2cc3c(cc2F)c(=O)c(C(=O)O)cn3Cc2ccc(C(F)(F)F)cc2)CC1 (configuration not stated) | 50 (≈ 75.2 µM) | 50 (≈ 75.2 µM) | 50 (≈ 75.2 µM) | 50 (≈ 75.2 µM) | 50 (≈ 75.2 µM) | 4.123 | 50 (≈ 75.2 µM) | 50 (≈ 75.2 µM) | 50 (≈ 75.2 µM) | 50 (≈ 75.2 µM) | 50 (≈ 75.2 µM) | 50 (≈ 75.2 µM) | 50 (≈ 75.2 µM) |  |  |  |  |  | 
6 | GENTAMICIN |  |  |  |  |  |  |  |  |  |  |  |  |  | 1.7 | > 50 | > 50 | 1.7 | > 50 | 1.7
7 | CC(C)(C)n1nnnc1C(c1ccco1)N1CCN(c2cc3c(cc2F)c(=O)c(C(=O)O)cn3Cc2ccc(C(F)(F)F)cc2)CC1 (configuration not stated) | 50 (≈ 76.5 µM) | 50 (≈ 76.5 µM) | 50 (≈ 76.5 µM) | 50 (≈ 76.5 µM) | 50 (≈ 76.5 µM) |  | 50 (≈ 76.5 µM) | 50 (≈ 76.5 µM) | 50 (≈ 76.5 µM) | 25 (≈ 38.2 µM) | 12.5 (≈ 19.1 µM) | 50 (≈ 76.5 µM) | 50 (≈ 76.5 µM) |  |  |  |  |  | 
8 | CCn1cc(C(=O)O)c(=O)c2cc(F)c(N3CCN(C(c4ccc(OC)c5ccccc45)c4nnnn4C(C)(C)C)CC3)cc21 (configuration not stated) | 12.5 (≈ 20.4 µM) | 18 (≈ 29.3 µM) | 7 (≈ 11.4 µM) | 50 (≈ 81.5 µM) | 50 (≈ 81.5 µM) | 4.69 | 12.5 (≈ 20.4 µM) | 6.9 (≈ 11.2 µM) | 7.5 (≈ 12.2 µM) | 25 (≈ 40.7 µM) | 12.5 (≈ 20.4 µM) | 50 (≈ 81.5 µM) | 50 (≈ 81.5 µM) |  |  |  |  |  | 
9 | O=C(O)c1cn(Cc2ccc(C(F)(F)F)cc2)c2cc(N3CCN(C(c4ccc(F)cc4)c4nnnn4C4CCCCC4)CC3)c(F)cc2c1=O (configuration not stated) | > 50 | 12.5 (≈ 17.7 µM) | 5.2 (≈ 7.35 µM) | > 50 | > 50 | 4.752 | 12.5 (≈ 17.7 µM) | > 50 | > 50 | > 50 | > 50 | > 50 | > 50 |  |  |  |  |  | 
10 | CCn1cc(C(=O)O)c(=O)c2cc(F)c(N3CCN(C(c4cccc5ccccc45)c4nnnn4C4CCCCC4)CC3)cc21 (configuration not stated) | 25 (≈ 41 µM) | 1.4 (≈ 2.3 µM) | 0.77 (≈ 1.26 µM) | 2.9 (≈ 4.76 µM) | 1.6 (≈ 2.62 µM) | 5.29 | 3.12 (≈ 5.12 µM) | 8.2 (≈ 13.4 µM) | 3.7 (≈ 6.07 µM) | 6.25 (≈ 10.3 µM) | 3.12 (≈ 5.12 µM) | 4.2 (≈ 6.89 µM) | 1.6 (≈ 2.62 µM) |  |  |  |  |  | 
